Active and inactive are the calls of the source. The rule behind the calls is not given here.

Assay [1] deals with Bel-7402. As to the kind of experiment: Cytotoxicity against human Bel7402 cells after 48 hrs by MTT assay. It counts as functional, cell-based. Conditions: Bel-7402, 48 h. A general note: Tetrazolium dyes change colour on reduction, which living cells bring about.
The test system of assay [2] is BGC-823. The assay is described as follows: Cytotoxicity against human BGC823 cells after 48 hrs by MTT assay. As to conditions: BGC-823, 48 h. The assay is classed as functional, cell-based.
The test system of assay [3] is HT-29. The assay is described as follows: Cytotoxicity against human HT-29 cells after 48 hrs by MTT assay. It counts as functional, cell-based. Conditions: HT-29, 48 h.
Assay [4] concerns A549. As to the kind of experiment: cells. Conditions: Homo sapiens, A549, 48 h.
Description: Cytotoxicity against human A549 cells after 48 hrs by MTT assay
For assay [5], the system named is A549. The assay is described as follows: Ratio of compound IC50 to gambogic acid IC50 for human A549 cells. The assay is classed as functional.
Assay [6] deals with HT-29. The assay is described as follows: Ratio of compound IC50 to gambogic acid IC50 for human HT-29 cells. It counts as functional.
Assay [7] relates to BGC-823. As to the kind of experiment: Ratio of compound IC50 to gambogic acid IC50 for human BGC823 cells. It counts as functional.
Assay [8] concerns BGC-823. As to the kind of experiment: Induction of apoptosis human BGC823 cells assessed as increase of apoptotic cells after 20 hrs using Annexin-V/PI double-staining by flow cytometry (reference value: 3.9%). The assay is classed as functional, cell-based.
Assay [9] relates to BGC-823. The assay is described as follows: Induction of apoptosis human BGC823 cells assessed as morphological changes at up to 8 uM after 48 hrs using Annexin-V/PI double-staining by light microscopic analysis. The assay is classed as functional, cell-based.
Assay [10] concerns Bel-7402. The assay is described as follows: Ratio of compound IC50 to gambogic acid IC50 for human Bel7402 cells. The assay is classed as functional.
Assay [11] concerns BGC-823. As to the kind of experiment: Induction of apoptosis human BGC823 cells assessed as increase of apoptotic cells at 4 uM after 20 hrs using Annexin-V/PI double-staining by flow cytometry (reference value: 3.9%). The assay is classed as functional. For orientation: In flow cytometry, cells or beads pass a laser one at a time.
Assay [12] concerns BGC-823. The assay is described as follows: Induction of apoptosis human BGC823 cells assessed as increase of apoptotic cells at 2 uM after 20 hrs using Annexin-V/PI double-staining by flow cytometry (reference value: 3.9%). It counts as functional.
The test system of assay [13] is BGC-823. The assay is described as follows: Induction of apoptosis human BGC823 cells assessed as increase of apoptotic cells at 8 uM after 20 hrs using Annexin-V/PI double-staining by flow cytometry (reference value: 3.9%). It counts as functional.
Assay [14] deals with BGC-823. The assay is described as follows: Induction of apoptosis human BGC823 cells assessed as nuclear fragmentation at up to 8 uM after 20 hrs using Annexin-V/PI double-staining by light microscopic analysis. It counts as functional, cell-based.

By IC50 is commonly meant the concentration at which inhibition is half-maximal. With `CC(C)=CCC[C@]1(C)C=Cc2c(O)c3c(c(CC=C(C)C)c2O1)O[C@]12C(=C[C@@H]4C[C@H]1C(C)(C)O[C@@]2(C/C=C(/C)C(=O)O)C4=O)C3=O` [GAMBOGIC ACID], the concentration for half-maximal inhibition (IC50) in the assay on Bel-7402 [1] worked out at 2080 nM; in the assay with BGC-823 [2] it was 2830 nM; with HT-29 [3], 3520 nM; in the assay on A549 [4], 3650 nM.
In the case of `C/C(=C/C[C@@]12OC(C)(C)[C@H]3C[C@@H](C=C4C(=O)c5c(O)c6c(c(CCC(C)(C)Cl)c5O[C@]431)O[C@]1(C)CC(=O)C(C(C)C)C6C1)C2=O)C(=O)O` (some centres undefined), the IC50 with Bel-7402 [1] is 4120 nM; in the assay on BGC-823 [2], 2930 nM; in the assay on HT-29 [3], 5600 nM; with A549 [4], 27600 nM.
As to `C=C(C)C1CC[C@]2(C)CC1c1c(O)c3c(c(CCC(C)(C)Cl)c1O2)O[C@]12C(=C[C@@H]4C[C@@H]1C(C)(C)O[C@@]2(C/C=C(/C)C(=O)O)C4=O)C3=O` (some centres undefined), the IC50 with Bel-7402 [1] was 18100 nM; with BGC-823 [2], 4000 nM; with HT-29 [3], 1640 nM; in the assay with A549 [4], 1240 nM. Also, in the assay on A549 [5], the “Ratio IC50” value came out at 2.
`COC(=O)/C(C)=C\C[C@@]12OC(C)(C)[C@H]3C[C@@H](C=C4C(=O)c5c(O)c6c(c(CC7OC7(C)C)c5O[C@]431)O[C@]1(C)CCC(=C(C)C)C6C1)C2=O` (some centres undefined): the IC50 came to 8100 nM in the assay with Bel-7402 [1], 2530 nM with BGC-823 [2], 120 nM with HT-29 [3] and 2340 nM in the assay with A549 [4]. In addition, the “Ratio IC50” value in the assay with HT-29 [6] was determined as 14.
Take `C=C(C)C1CC[C@]2(C)CC1c1c(O)c3c(c(CC=C(C)C)c1O2)O[C@]12C(=C[C@@H]4C[C@@H]1C(C)(C)O[C@@]2(C/C=C(/C)C(=O)OC)C4=O)C3=O` (some centres undefined): the IC50 came to 4560 nM with Bel-7402 [1], 2610 nM in the assay with BGC-823 [2], 810 nM in the assay on HT-29 [3] and 1790 nM with A549 [4]. The “Ratio IC50” value in the assay with A549 [5] came to 2; with HT-29 [6], 4.
For `COC(=O)/C(C)=C\C[C@@]12OC(C)(C)[C@H]3C[C@@H](C=C4C(=O)c5c(O)c6c(c(C/C=C(\C)CO)c5O[C@]431)O[C@]1(C)CCC(=C(C)C)C6C1)C2=O`, the IC50 in the assay with Bel-7402 [1] is 11000 nM; with BGC-823 [2], 1420 nM; in the assay on HT-29 [3] it was 140 nM; in the assay on A549 [4] it was 1560 nM. Also, the “Ratio IC50” value in the assay on A549 [5] amounted to 2; in the assay on BGC-823 [7], 2; in the assay with HT-29 [6] it was 14.
For the compound `C=C(C)C1CC[C@]2(C)CC1c1c(O)c3c(c(CC=C(C)C)c1O2)O[C@]12C(=C[C@@H]4C[C@@H]1C(C)(C)O[C@@]2(C/C=C(/C)C(=O)O)C4=O)C3=O` (some centres undefined) [GAMBOGELLIC ACID], the IC50 is 6480 nM in the assay with Bel-7402 [1], 460 nM with BGC-823 [2], 1340 nM in the assay with HT-29 [3] and 1120 nM with A549 [4]. In the assay on A549 [5], the “Ratio IC50” value is 2.
As to `C=C(C)C1CC[C@]2(C)CC1c1c(O)c3c(c(CCC(C)(C)Cl)c1O2)O[C@]12C(=C[C@@H]4C[C@@H]1C(C)(C)O[C@@]2(C/C=C(/C)C(=O)OC)C4=O)C3=O` (some centres undefined), the IC50 with Bel-7402 [1] is 2630 nM; in the assay with BGC-823 [2], 1980 nM; with HT-29 [3], 4550 nM; in the assay with A549 [4] it was 4630 nM. Besides, the “Ratio IC50” value with BGC-823 [7] is recorded as 2.
For the compound `COC(=O)/C(C)=C\C[C@@]12OC(C)(C)[C@H]3C[C@@H](C=C4C(=O)c5c(O)c6c(c(CC=C(C)C)c5O[C@]431)O[C@]1(C)CCC(=C(C)C)C6C1)C2=O`, the IC50 came to 7860 nM in the assay on Bel-7402 [1], 6620 nM with BGC-823 [2], 540 nM in the assay on HT-29 [3] and 5550 nM in the assay with A549 [4]. In addition, the “Ratio IC50” value in the assay with HT-29 [6] is 4.
With `C/C(=C/C[C@@]12OC(C)(C)[C@H]3C[C@@H](C=C4C(=O)c5c(O)c6c(c(CCC(C)(C)Cl)c5O[C@]431)O[C@]1(C)CCC(C3(C)CO3)C6C1)C2=O)C(=O)O` (some centres undefined), the IC50 with Bel-7402 [1] turned out to be 440 nM; with BGC-823 [2] it was 280 nM; in the assay on HT-29 [3], 1330 nM; with A549 [4] it was 3180 nM. The Activity result is “Dose-dependent effect” in the assay with BGC-823 [8], 6.2% in the assay on BGC-823 [11], 4.2% with BGC-823 [12] and 25.7% with BGC-823 [13]. For the same compound, the result in the assay with BGC-823 [9] and in the assay with BGC-823 [14] was Active. In the assay on Bel-7402 [10], the “Ratio IC50” value was 4.7.
As for `C=C(C)C1CC[C@]2(C)CC1c1c(O)c3c(c(C/C=C(\C)CO)c1O2)O[C@]12C(=C[C@@H]4C[C@@H]1C(C)(C)O[C@@]2(C/C=C(/C)C(=O)OC)C4=O)C3=O` (some centres undefined), the IC50 is 13000 nM in the assay with Bel-7402 [1], 620 nM in the assay with BGC-823 [2], 240 nM in the assay on HT-29 [3] and 980 nM in the assay on A549 [4]. Moreover, the “Ratio IC50” value is reported as 2 in the assay with A549 [5], 2 in the assay on BGC-823 [7] and 14 in the assay on HT-29 [6].
Turning to `COC(=O)/C(C)=C\C[C@@]12OC(C)(C)[C@H]3C[C@@H](C=C4C(=O)c5c(O)c6c(c(CC=C(C)C)c5O[C@]431)O[C@]1(C)CCC(C3(C)CO3)C6C1)C2=O` (some centres undefined), the IC50 with Bel-7402 [1] amounted to 4380 nM; with BGC-823 [2], 920 nM; in the assay with HT-29 [3] it was 490 nM; with A549 [4] it was 2420 nM. The “Ratio IC50” value with BGC-823 [7] came to 2; with HT-29 [6] it was 4.
As for `C=C(C)C1CC[C@]2(C)CC1c1c(O)c3c(c(CCC(C)(C)Cl)c1O2)O[C@]12[C@@H]4C[C@H](C(=O)[C@]1(C/C=C(/C)C(=O)O)OC4(C)C)C(O)C2(O)C3=O` (some centres undefined), the IC50 with Bel-7402 [1], with BGC-823 [2], in the assay on HT-29 [3] and in the assay with A549 [4] was over 100000 nM in each case.

The values are drawn from ChEMBL document CHEMBL1240451, “Studies on chemical modification and biology of a natural product, gambogic acid (II): Synthesis and bioevaluation of gambogellic acid and its derivatives from gambogic acid as antitumor agents” (Eur J Med Chem, 2010).
